Experimental data as given in ChEMBL document CHEMBL6087472, “Development and Discovery of a Selective Degrader of Casein Kinases 1 δ/ε” (J Med Chem, 2025).
Activity calls are given as the source filed them. The rule behind the calls is not given here.

How the values were obtained:
[1] = molecular target: T1, von Hippel-Lindau disease tumor suppressor/Casein kinase I isoform delta (Homo sapiens, UniProt P48730+P40337); test: PROTAC activity at VHL/Hibit-fused CK1 delta in human MV4-11 cells assessed as degradation of CK1-delta incubated for 6 hrs by Nano-Glo HiBiT assay; format: cell-based
Target sequence in this assay (P48730 whole entry, the tested form may be a part, canonical isoform): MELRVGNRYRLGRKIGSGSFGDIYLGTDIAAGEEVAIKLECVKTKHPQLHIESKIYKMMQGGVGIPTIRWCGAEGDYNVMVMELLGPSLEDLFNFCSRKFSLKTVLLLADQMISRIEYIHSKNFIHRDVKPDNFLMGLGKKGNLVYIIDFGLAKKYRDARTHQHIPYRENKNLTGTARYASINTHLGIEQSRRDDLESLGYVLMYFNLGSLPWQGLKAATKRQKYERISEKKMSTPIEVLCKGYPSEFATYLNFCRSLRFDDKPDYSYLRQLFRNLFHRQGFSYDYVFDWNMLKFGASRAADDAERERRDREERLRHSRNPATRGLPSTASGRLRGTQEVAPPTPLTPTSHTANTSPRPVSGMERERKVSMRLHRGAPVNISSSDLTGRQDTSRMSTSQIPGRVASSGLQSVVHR
Target sequence in this assay (P40337 whole entry, the tested form may be a part, canonical isoform): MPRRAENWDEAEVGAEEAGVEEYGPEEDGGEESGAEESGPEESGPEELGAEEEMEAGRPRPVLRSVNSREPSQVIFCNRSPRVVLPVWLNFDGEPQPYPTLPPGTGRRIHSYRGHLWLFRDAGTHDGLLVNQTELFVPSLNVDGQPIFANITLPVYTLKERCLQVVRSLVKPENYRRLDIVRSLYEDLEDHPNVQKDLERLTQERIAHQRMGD

[2] = molecular target: T2, von Hippel-Lindau disease tumor suppressor/Casein kinase I isoform alpha (Homo sapiens) (UniProt P48729+P40337); test: PROTAC activity at VHL/Hibit-fused CK1 alpha in human MV4-11 cells assessed as degradation of CK1-alpha incubated for 6 hrs by Nano-Glo HiBiT assay relative to control; format: cell-based
T2 sequence (P40337 whole entry, looked up, the tested form may be a part, canonical isoform): as the sequence (P40337 whole entry, the tested form may be a part, canonical isoform) above
T2 sequence (P48729 whole entry, looked up, the tested form may be a part, canonical isoform): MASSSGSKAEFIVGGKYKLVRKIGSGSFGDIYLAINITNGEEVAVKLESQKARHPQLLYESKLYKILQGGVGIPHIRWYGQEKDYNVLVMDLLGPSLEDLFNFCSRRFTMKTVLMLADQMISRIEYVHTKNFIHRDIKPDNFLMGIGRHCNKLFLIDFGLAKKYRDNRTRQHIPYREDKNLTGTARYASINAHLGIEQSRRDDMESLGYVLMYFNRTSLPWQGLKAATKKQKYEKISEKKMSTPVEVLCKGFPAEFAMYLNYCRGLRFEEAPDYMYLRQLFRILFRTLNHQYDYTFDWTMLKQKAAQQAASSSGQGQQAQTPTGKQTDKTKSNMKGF

[3] = molecular target: T2, von Hippel-Lindau disease tumor suppressor/Casein kinase I isoform alpha (Homo sapiens); test: PROTAC activity at VHL/CK1 alpha in human MV4-11 cells assessed as degradation of CK1-alpha at 10 to 30 uM incubated for 6 hrs by Western blot analysis; format: cell-based; conditions: dose 10-30 µM
[4] = molecular target: T3, von Hippel-Lindau disease tumor suppressor/Casein kinase I isoform epsilon (Homo sapiens) (UniProt P49674+P40337); test: PROTAC activity at VHL/Hibit-fused CK1 epsilon in human MV4-11 cells assessed as degradation of CK1 epsilon at 5 to 10 uM incubated for 6 hrs by Western blot analysis; format: cell-based; conditions: dose 5-10 µM
T3 sequence (P40337 whole entry, looked up, the tested form may be a part, canonical isoform): as the sequence (P40337 whole entry, the tested form may be a part, canonical isoform) above
T3 sequence (P49674 whole entry, looked up, the tested form may be a part, canonical isoform): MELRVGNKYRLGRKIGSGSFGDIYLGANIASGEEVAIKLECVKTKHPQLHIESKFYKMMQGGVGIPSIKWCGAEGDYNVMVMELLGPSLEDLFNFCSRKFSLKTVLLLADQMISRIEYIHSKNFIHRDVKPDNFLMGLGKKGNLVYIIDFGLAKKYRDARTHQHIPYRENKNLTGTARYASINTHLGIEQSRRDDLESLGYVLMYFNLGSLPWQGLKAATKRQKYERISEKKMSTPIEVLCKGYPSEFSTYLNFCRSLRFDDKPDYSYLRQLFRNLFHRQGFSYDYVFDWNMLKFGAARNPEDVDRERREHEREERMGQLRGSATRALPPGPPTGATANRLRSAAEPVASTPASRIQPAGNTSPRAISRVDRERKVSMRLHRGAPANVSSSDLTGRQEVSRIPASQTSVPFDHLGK

[5] = molecular target: T1, von Hippel-Lindau disease tumor suppressor/Casein kinase I isoform delta; test: PROTAC activity at VHL/CK1 delta in HEK293 cells assessed as induction of degradation of CK1 delta by measuring maximum efficacy at 5 to 10 uM measured after 6 hrs by Western blot analysis relative to control; format: cell-based; conditions: dose 5-10 µM
Target sequence in this assay (P40337 whole entry, looked up, the tested form may be a part, canonical isoform): as the sequence (P40337 whole entry, the tested form may be a part, canonical isoform) above
Target sequence in this assay (P48730 whole entry, looked up, the tested form may be a part, canonical isoform): as the sequence (P48730 whole entry, the tested form may be a part, canonical isoform) above

[6] = molecular target: T3, von Hippel-Lindau disease tumor suppressor/Casein kinase I isoform epsilon (Homo sapiens); test: PROTAC activity at VHL/CK1 epsilon in HEK293 cells assessed as induction of degradation of CK1 epsilon by measuring maximum efficacy at 5 to 10 uM measured after 6 hrs by Western blot analysis relative to control; format: cell-based; conditions: dose 5-10 µM
[7] = tested on: MV4-11; test: Cytotoxicity in human MV4-11 cells at >10 uM measured after 72 hrs by alamar blue assay; format: functional, cell-based
[8] = molecular target: T1, von Hippel-Lindau disease tumor suppressor/Casein kinase I isoform delta; test: PROTAC activity at VHL/CK1 delta in HEK293 cells assessed as induction of degradation of CK1 delta measured after 6 hrs by Western blot analysis; format: cell-based; conditions: dose 0.01-30 µM
Target sequence in this assay (P40337 whole entry, looked up, the tested form may be a part, canonical isoform): as the sequence (P40337 whole entry, the tested form may be a part, canonical isoform) above
Target sequence in this assay (P48730 whole entry, looked up, the tested form may be a part, canonical isoform): as the sequence (P48730 whole entry, the tested form may be a part, canonical isoform) above

[9] = molecular target: T3, von Hippel-Lindau disease tumor suppressor/Casein kinase I isoform epsilon (Homo sapiens); test: PROTAC activity at VHL/CK1 epsilon in HEK293 cells assessed as induction of degradation of CK1 epsilon measured after 6 hrs by Western blot analysis; format: cell-based; conditions: dose 0.01-30 µM
[10] = molecular target: T1, von Hippel-Lindau disease tumor suppressor/Casein kinase I isoform delta; test: PROTAC activity at VHL/CK1 delta in HEK293 cells assessed as induction of degradation of CK1 delta at 0.3 to 1.0 uM measured after 6 hrs by Western blot analysis relative to control; format: cell-based; conditions: dose 0.3-1 µM
Target sequence in this assay (P40337 whole entry, looked up, the tested form may be a part, canonical isoform): as the sequence (P40337 whole entry, the tested form may be a part, canonical isoform) above
Target sequence in this assay (P48730 whole entry, looked up, the tested form may be a part, canonical isoform): as the sequence (P48730 whole entry, the tested form may be a part, canonical isoform) above

[11] = molecular target: T3, von Hippel-Lindau disease tumor suppressor/Casein kinase I isoform epsilon (Homo sapiens); test: PROTAC activity at VHL/CK1 epsilon in HEK293 cells assessed as induction of degradation of CK1 epsilon at 0.3 to 1.0 uM measured after 6 hrs by Western blot analysis relative to control; format: cell-based; conditions: dose 0.3-1 µM
[12] = tested on: HEK293; test: Effect on VANGL2 phosphorylation in human HEK293 cells at 1 uM measured after 6 hrs by Western blot analysis; format: functional, cell-based
[13] = molecular target: T1, von Hippel-Lindau disease tumor suppressor/Casein kinase I isoform delta; test: PROTAC activity at VHL/CK1 delta in HEK293 cells assessed as induction of degradation of CK1 delta at 3 uM measured after 1 hrs by Western blot analysis; format: cell-based
Target sequence in this assay (P40337 whole entry, looked up, the tested form may be a part, canonical isoform): as the sequence (P40337 whole entry, the tested form may be a part, canonical isoform) above
Target sequence in this assay (P48730 whole entry, looked up, the tested form may be a part, canonical isoform): as the sequence (P48730 whole entry, the tested form may be a part, canonical isoform) above

[14] = molecular target: T3, von Hippel-Lindau disease tumor suppressor/Casein kinase I isoform epsilon (Homo sapiens); test: PROTAC activity at VHL/CK1 epsilon in HEK293 cells assessed as induction of degradation of CK1 epsilon at 3 uM measured after 1 hrs by Western blot analysis; format: cell-based
[15] = molecular target: T2, von Hippel-Lindau disease tumor suppressor/Casein kinase I isoform alpha (Homo sapiens); test: PROTAC activity at VHL/CK1 alpha in human MV4-11 cells assessed as induction of degradation of CK1 alpha by measuring maximum efficacy at 2.5 uM measured after 12 hrs by HiBit assay relative to control; format: cell-based
[16] = molecular target: T1, von Hippel-Lindau disease tumor suppressor/Casein kinase I isoform delta; test: PROTAC activity at VHL/CK1 delta in human MDA-MB-231 cells assessed as induction of degradation of CK1 delta at 1 uM measured after 6 hrs; format: cell-based
Target sequence in this assay (P40337 whole entry, looked up, the tested form may be a part, canonical isoform): as the sequence (P40337 whole entry, the tested form may be a part, canonical isoform) above
Target sequence in this assay (P48730 whole entry, looked up, the tested form may be a part, canonical isoform): as the sequence (P48730 whole entry, the tested form may be a part, canonical isoform) above

[17] = molecular target: T1, von Hippel-Lindau disease tumor suppressor/Casein kinase I isoform delta; test: PROTAC activity at VHL/CK1 delta in human U87 cells assessed as induction of degradation of CK1 delta at 1 uM measured after 6 hrs; format: cell-based
Target sequence in this assay (P40337 whole entry, looked up, the tested form may be a part, canonical isoform): as the sequence (P40337 whole entry, the tested form may be a part, canonical isoform) above
Target sequence in this assay (P48730 whole entry, looked up, the tested form may be a part, canonical isoform): as the sequence (P48730 whole entry, the tested form may be a part, canonical isoform) above

[18] = molecular target: T3, von Hippel-Lindau disease tumor suppressor/Casein kinase I isoform epsilon (Homo sapiens); test: PROTAC activity at VHL/CK1 epsilon in human MDA-MB-231 cells assessed as induction of degradation of CK1 epsilon at 1 uM measured after 6 hrs; format: cell-based
[19] = molecular target: T3, von Hippel-Lindau disease tumor suppressor/Casein kinase I isoform epsilon (Homo sapiens); test: PROTAC activity at VHL/CK1 epsilon in human MDA-MB-231 cells assessed as induction of degradation of CK1 epsilon by measuring maximum efficacy at 1 uM measured after 6 hrs relative to control; format: cell-based
[20] = molecular target: T1, von Hippel-Lindau disease tumor suppressor/Casein kinase I isoform delta; test: PROTAC activity at VHL/CK1 delta in human U87 cells assessed as induction of degradation of CK1 delta by measuring maximum efficacy at 1 uM measured after 6 hrs relative to control; format: cell-based
[21] = molecular target: T3, von Hippel-Lindau disease tumor suppressor/Casein kinase I isoform epsilon (Homo sapiens); test: PROTAC activity at VHL/CK1 epsilon in human U87 cells assessed as induction of degradation of CK1 epsilon by measuring maximum efficacy at 1 uM measured after 6 hrs relative to control; format: cell-based
[22] = molecular target: T1, von Hippel-Lindau disease tumor suppressor/Casein kinase I isoform delta; test: PROTAC activity at VHL/HiBit fused CK1 delta in human MV4-11 cells assessed as fold change at 10 uM measured after 6 hrs by Nano-Glo HiBit assay; format: cell-based
[23] = molecular target: T1, von Hippel-Lindau disease tumor suppressor/Casein kinase I isoform delta; test: PROTAC activity at VHL/HiBit fused CK1 delta in human MV4-11 cells assessed as fold change at 10 uM measured after 6 hrs in presence of 10 uM of MU1742 by Nano-Glo HiBit assay; format: cell-based
[24] = molecular target: T1, von Hippel-Lindau disease tumor suppressor/Casein kinase I isoform delta; test: PROTAC activity at VHL/HiBit fused CK1 delta in human MV4-11 cells assessed as fold change at 2.5 uM measured after 6 hrs in presence of 10 uM of MU1742 by Nano-Glo HiBit assay; format: cell-based
[25] = molecular target: T1, von Hippel-Lindau disease tumor suppressor/Casein kinase I isoform delta; test: PROTAC activity at VHL/HiBit fused CK1 delta in human MV4-11 cells assessed as fold change at 0.63 uM measured after 6 hrs by Nano-Glo HiBit assay; format: cell-based
[26] = molecular target: T1, von Hippel-Lindau disease tumor suppressor/Casein kinase I isoform delta; test: PROTAC activity at VHL/HiBit fused CK1 delta in human MV4-11 cells assessed as fold change at 0.63 uM measured after 6 hrs in presence of 1 uM of MU1742 by Nano-Glo HiBit assay; format: cell-based
[27] = molecular target: T2, von Hippel-Lindau disease tumor suppressor/Casein kinase I isoform alpha (Homo sapiens); test: PROTAC activity at VHL/CK1 alpha in human HEK293 cells at 0.625 to 10 uM in presence of MU1742 by Western blot analysis; format: cell-based; conditions: dose 0.625-10 µM
[28] = molecular target: T3, von Hippel-Lindau disease tumor suppressor/Casein kinase I isoform epsilon (Homo sapiens); test: PROTAC activity at VHL/CK1 epsilon in human HEK293 cells at 0.625 to 10 uM in presence of MU1742 by Western blot analysis; format: cell-based; conditions: dose 0.625-10 µM
[29] = molecular target: T1, von Hippel-Lindau disease tumor suppressor/Casein kinase I isoform delta; test: PROTAC activity at VHL/Hibit-fused CK1 delta in human MV4-11 cells assessed as degradation of CK1-delta at 2.5 uM measured upto 12 hrs in presence of cycloheximide by Nano-Glo HiBiT assay relative to control; format: cell-based
[30] = molecular target: T1, von Hippel-Lindau disease tumor suppressor/Casein kinase I isoform delta; test: PROTAC activity at VHL/Hibit-fused CK1 delta in human MV4-11 cells assessed as half life at 2.5 uM measured upto 12 hrs in presence of cycloheximide by Nano-Glo HiBiT assay (reference value: 3 hrs); format: cell-based

## Cc1ncsc1-c1ccc(CNC(=O)[C@H]2C[C@H](O)CN2C(=O)[C@H](NC(=O)CCCCCCC(=O)N2CCC(F)(Cn3cnc(-c4ccc(F)cn4)c3-c3ccnc4[nH]ccc34)CC2)C(C)(C)C)cc1
[1]
  DC50: 550 nM
[2]
  Emax: 35.1%
[3]
  Activity: Not active; Compound Showed Weak Degradation
[4]
  Activity: Active
[5]
  Emax: > 50%
[6]
  Emax: > 50%
[7]
  Activity: Active
[8]
  Activity: Dose-dependent-effect
[9]
  Activity: Dose-dependent-effect
[10]
  Activity: 100%
[11]
  Activity: 100%
[12]
  Activity: Active
[13]
  Activity: Active
[14]
  Activity: Active
[15]
  Emax: 20%
[16]
  Activity: Active
[17]
  Activity: Active
[18]
  Activity: Active
[19]
  Emax: 75%
[20]
  Emax: > 50%
[21]
  Emax: > 50%
[22]
  fold change (FC): 0.3
[23]
  fold change (FC): 1.02
[24]
  fold change (FC): 1.19
[25]
  fold change (FC): 0.49
[26]
  fold change (FC): 1.19
[27]
  Activity: inactive
[28]
  Activity: inactive
[29]
  Activity: 90%
[30]
  T1/2: 40 min
